Test results reported in ChEMBL document CHEMBL5352409, “Design, synthesis, and pharmacological evaluation of 2-(1-(1,3,4-thiadiazol-2-yl)piperidin-4-yl)ethan-1-ol analogs as novel glutaminase 1 inhibitors” (Eur J Med Chem, 2022).

What was measured:
A549 = experiment: Antiproliferative activity against human A549 cells assessed as reduction in cell viability; type: functional, cell-based
[1] = molecular target: T1, Glutaminase kidney isoform, mitochondrial (Homo sapiens, UniProt O94925); experiment: Inhibition of GLS1 (unknown origin)
T1 sequence (O94925 whole entry): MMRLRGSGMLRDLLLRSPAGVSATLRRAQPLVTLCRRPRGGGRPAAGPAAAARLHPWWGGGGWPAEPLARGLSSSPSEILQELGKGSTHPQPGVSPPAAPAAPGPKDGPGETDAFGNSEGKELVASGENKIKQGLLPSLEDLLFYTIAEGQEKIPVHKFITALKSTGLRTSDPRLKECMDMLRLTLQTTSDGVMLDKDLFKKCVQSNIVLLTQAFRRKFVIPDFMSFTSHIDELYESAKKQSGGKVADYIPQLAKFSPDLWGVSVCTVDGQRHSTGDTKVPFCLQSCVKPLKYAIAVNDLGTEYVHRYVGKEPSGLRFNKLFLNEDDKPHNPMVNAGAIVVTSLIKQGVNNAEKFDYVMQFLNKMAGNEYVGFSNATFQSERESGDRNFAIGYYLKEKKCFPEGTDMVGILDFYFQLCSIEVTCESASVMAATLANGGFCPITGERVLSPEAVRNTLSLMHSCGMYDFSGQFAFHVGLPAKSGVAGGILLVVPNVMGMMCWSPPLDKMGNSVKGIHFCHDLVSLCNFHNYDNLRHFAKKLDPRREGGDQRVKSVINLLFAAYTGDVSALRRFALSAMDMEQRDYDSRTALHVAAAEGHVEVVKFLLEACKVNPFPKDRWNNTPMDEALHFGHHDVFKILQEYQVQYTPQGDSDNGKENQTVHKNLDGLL

HCT-116 = experiment: cells; details: Homo sapiens

Structure (SMILES) | IC50 (A549) [µM] | IC50 [1] [µM] | IC50 (HCT-116) [µM]
CCN(CC)CCNC(=O)c1cccc(COCCC2CCN(c3nnc(NC(=O)Cc4ccccc4)s3)CC2)c1 | 7.51 | 0.621 | 9.03
COCCNC(=O)c1ccc(CN2CCN(c3nnc(NC(=O)Cc4ccccc4)s3)CC2)cc1 | > 10 | > 10 | > 10
O=C(Cc1ccccc1)Nc1nnc(N2CCC(CCOCc3cccc(C(=O)NCCN4CCCC4)c3)CC2)s1 | 9.68 | 0.489 | 8.95
CCCCNC(=O)c1ccc(COCC2CCN(c3nnc(NC(=O)Cc4ccccc4)s3)CC2)cc1 | 5.84 | 0.53 | 4.98
O=C(Cc1ccccc1)Nc1nnc(CCc2ccc(C(=O)N3CCCCC3)cc2)s1 | > 10 | > 10 | > 10
O=C(Cc1ccccc1)Nc1nnc(N2CCN(Cc3ccc(C(=O)NCCN4CCCC4)cc3)CC2)s1 | 3.65 | 0.163 | 1.66
CCN(CC)CCNC(=O)c1ccc(COCCC2CCN(c3nnc(NC(=O)Cc4ccccc4)s3)CC2)cc1 | 4.38 | 0.44 | 1.2
CCN(CC)CCNC(=O)c1ccc(CCc2nnc(NC(=O)Cc3ccccc3)s2)cc1 | > 10 | > 10 | > 10
CCCNC(=O)c1ccc(COCCC2CCN(c3nnc(NC(=O)Cc4ccccc4)s3)CC2)cc1 | 3.45 | 0.42 | 2.89
O=C(Cc1ccccc1)Nc1nnc(N2CCN(Cc3ccc(C(=O)N4CCC(CO)CC4)cc3)CC2)s1 | 4.06 | 0.363 | 3.92
O=C(Cc1ccccc1)Nc1nnc(N2CCC(CCOCc3cccc(C(=O)NCCN4CCCCC4)c3)CC2)s1 | 8.52 | 0.555 | 7.05
CN1CCC(CNC(=O)c2cccc(COCCC3CCN(c4nnc(NC(=O)Cc5ccccc5)s4)CC3)c2)CC1 | 9.07 | 0.802 | 8.12
O=C(Cc1ccccc1)Nc1nnc(N2CCN(Cc3cccc(C(=O)NCCc4ccc(F)cc4)c3)CC2)s1 | > 10 |  | > 10
CN1CCC(CNC(=O)c2ccc(CN3CCN(c4nnc(NC(=O)Cc5ccccc5)s4)CC3)cc2)CC1 | > 10 | > 10 | > 10
Cc1cccc(CN(C)C(=O)c2ccc(CN3CCN(c4nnc(NC(=O)Cc5ccccc5)s4)CC3)cc2)c1 | > 10 | > 1 | > 10
O=C(Cc1ccccc1)Nc1nnc(CCc2ccc(C(=O)NCCN3CCCC3)cc2)s1 | > 10 | > 10 | > 10
CC(C)c1ccc(CNC(=O)c2cccc(CN3CCN(c4nnc(NC(=O)Cc5ccccc5)s4)CC3)c2)cc1 | > 10 |  | > 10
CC(C)N1CCC(CNC(=O)c2cccc(COCCC3CCN(c4nnc(NC(=O)Cc5ccccc5)s4)CC3)c2)CC1 | > 10 |  | > 10
O=C(Cc1ccccc1)Nc1nnc(N2CCN(Cc3ccc(C(=O)NCCN4CCCCC4)cc3)CC2)s1 | 3.28 | 0.162 | 1.09
O=C(Cc1ccccc1)Nc1nnc(N2CCC(CCOCc3cccc(C(=O)N4CCN(c5cccc(F)c5)CC4)c3)CC2)s1 | 7.42 | 0.546 | 8.52
O=C(Cc1ccccc1)Nc1ccc(CN2CCN(c3nnc(NC(=O)Cc4ccccc4)s3)CC2)cc1 | > 10 |  | > 10
CN1CCC(CNC(=O)c2ccc(COC3CCN(c4nnc(NC(=O)Cc5ccccc5)s4)CC3)cc2)CC1 | > 10 | > 10 | > 10
C=CCCC(=O)N1CCC(CNC(=O)c2cccc(COCCC3CCN(c4nnc(NC(=O)Cc5ccccc5)s4)CC3)c2)CC1 | 3.52 | 0.35 | 4.03
O=C(Cc1ccccc1)Nc1nnc(N2CCN(Cc3cccc(C(=O)NCc4ccc(C(F)(F)F)cc4)c3)CC2)s1 | > 10 |  | > 10
CC(C)CNC(=O)c1ccc(CN2CCN(c3nnc(NC(=O)Cc4ccccc4)s3)CC2)cc1 | 2.53 | 0.146 | 1.09
O=C(Cc1ccccc1)Nc1cccc(CN2CCN(c3nnc(NC(=O)Cc4ccccc4)s3)CC2)c1 | > 10 |  | > 10
CCCNC(=O)c1ccc(CCc2nnc(NC(=O)Cc3ccccc3)s2)cc1 | > 10 | > 10 | > 10
CN1CCC(CNC(=O)c2cccc(CN3CCN(c4nnc(NC(=O)Cc5ccccc5)s4)CC3)c2)CC1 | 3.96 | 0.432 | 1.56
CCN1CCC(NC(=O)c2ccc(COC3CCN(c4nnc(NC(=O)Cc5ccccc5)s4)CC3)cc2)CC1 | > 10 | 2.55 | > 10

The next compounds have a lower IC50 (A549) than those just listed; values first:

IC50 (A549) [µM] | IC50 [1] [µM] | IC50 (HCT-116) [µM] | Structure (SMILES)
1.68 | 0.212 | 1.08 | Cc1ccc(NC(=O)c2ccc(CN3CCN(c4nnc(NC(=O)Cc5ccccc5)s4)CC3)cc2)cc1
2.03 | 0.212 | 1.67 | O=C(Cc1ccccc1)Nc1nnc(N2CCN(Cc3cccc(C(=O)NCCN4CCCCC4)c3)CC2)s1
1.85 | 0.253 | 1.49 | O=C(Cc1ccccc1)Nc1nnc(N2CCN(Cc3ccc(C(=O)NCc4cccc(C(F)(F)F)c4)cc3)CC2)s1
1.29 | 0.12 | 0.91 | CCCCN1CCC(CNC(=O)c2ccc(COCCC3CCN(c4nnc(NC(=O)Cc5ccccc5)s4)CC3)cc2)CC1
0.98 | 0.126 | 0.69 | O=C(Cc1ccccc1)Nc1nnc(N2CCC(CCOCc3cccc(C(=O)NCC4CCN(Cc5cc(F)cc(F)c5)CC4)c3)CC2)s1
2.24 | 0.365 | 3.05 | CC(C)N1CCC(CNC(=O)c2ccc(COCCC3CCN(c4nnc(NC(=O)Cc5ccccc5)s4)CC3)cc2)CC1
2.42 | 0.345 | 1.49 | CCN(CC)CCNC(=O)c1cccc(CN2CCN(c3nnc(NC(=O)Cc4ccccc4)s3)CC2)c1
1.89 | 0.12 | 0.8 | O=C(Cc1ccccc1)Nc1nnc(N2CCC(CCOCc3ccc(C(=O)NCC4CCN(Cc5cc(F)cc(F)c5)CC4)cc3)CC2)s1
1.26 | 0.135 | 0.81 | Cc1ccccc1CN1CCC(CNC(=O)c2ccc(COCCC3CCN(c4nnc(NC(=O)Cc5ccccc5)s4)CC3)cc2)CC1
1.22 | 0.106 | 1.09 | O=C(Cc1ccccc1)Nc1nnc(N2CCN(Cc3ccc(C(=O)NCCNc4ccccc4)cc3)CC2)s1
1.05 | 0.089 | 1.53 | CN1CCN(c2ccc(C(=O)Nc3cccc(CN4CCN(c5nnc(NC(=O)Cc6ccccc6)s5)CC4)c3)cc2)CC1
1.55 | 0.16 | 1.08 | CCCCN1CCC(CNC(=O)c2cccc(COCCC3CCN(c4nnc(NC(=O)Cc5ccccc5)s4)CC3)c2)CC1
2.07 | 0.264 | 2.86 | CCN(CC)CCNC(=O)c1ccc(CN2CCN(c3nnc(NC(=O)Cc4ccccc4)s3)CC2)cc1
2.01 | 0.26 | 3.92 | CCCN1CCC(CNC(=O)c2cccc(COCCC3CCN(c4nnc(NC(=O)Cc5ccccc5)s4)CC3)c2)CC1
2.04 | 0.3 | 0.57 | O=C(Cc1ccccc1)Nc1nnc(N2CCN(Cc3ccc(C(=O)NCCc4ccc(F)cc4)cc3)CC2)s1
1.09 | 0.132 | 1.49 | O=C(Cc1ccccc1)Nc1nnc(N2CCN(Cc3ccc(C(=O)NC4CCCC4)cc3)CC2)s1
1.05 | 0.123 | 1.26 | CN1CCN(c2cccc(C(=O)Nc3ccc(CN4CCN(c5nnc(NC(=O)Cc6ccccc6)s5)CC4)cc3)c2)CC1
0.98 | 0.077 | 1.19 | CN1CCN(c2cccc(C(=O)Nc3cccc(CN4CCN(c5nnc(NC(=O)Cc6ccccc6)s5)CC4)c3)c2)CC1
1.25 | 1.25 | 3.81 | O=C(Cc1ccccc1)Nc1nnc(N2CCC(OCc3ccc(C(=O)NCCN4CCCC4)cc3)CC2)s1
2.26 | 0.221 | 1.28 | CCNCCNC(=O)c1ccc(CN2CCN(c3nnc(NC(=O)Cc4ccccc4)s3)CC2)cc1
1.08 | 1.08 | 4.08 | CCCNC(=O)c1ccc(COC2CCN(c3nnc(NC(=O)Cc4ccccc4)s3)CC2)cc1
1.28 | 0.25 | 0.67 | CN1CCN(c2ccc(NC(=O)c3ccc(CN4CCN(c5nnc(NC(=O)Cc6ccccc6)s5)CC4)cc3)cc2)CC1
